# Assays:
# [1] = target: T1, Alpha-2A adrenergic receptor (Rattus norvegicus) (UniProt P22909); assay: Displacement of [3H]RX 821002 from Adrenergic alpha-2a receptor in rat cerebral cortex cells at 1 uM; type: cell-based
# T1 sequence (whole entry): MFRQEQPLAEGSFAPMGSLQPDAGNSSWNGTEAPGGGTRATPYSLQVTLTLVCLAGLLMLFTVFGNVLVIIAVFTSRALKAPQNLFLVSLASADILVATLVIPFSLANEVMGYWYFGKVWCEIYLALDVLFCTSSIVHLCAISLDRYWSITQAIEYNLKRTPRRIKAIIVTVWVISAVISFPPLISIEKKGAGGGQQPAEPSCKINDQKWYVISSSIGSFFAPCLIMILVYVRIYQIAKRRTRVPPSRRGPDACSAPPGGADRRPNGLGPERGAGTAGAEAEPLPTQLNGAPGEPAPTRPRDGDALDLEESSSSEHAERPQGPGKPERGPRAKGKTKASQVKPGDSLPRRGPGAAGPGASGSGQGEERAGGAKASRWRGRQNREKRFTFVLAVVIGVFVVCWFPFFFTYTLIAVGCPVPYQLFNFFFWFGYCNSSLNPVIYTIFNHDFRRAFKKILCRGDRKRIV
# [2] = target: Adrenergic receptor alpha-1 (Rattus norvegicus) (UniProt P15823+P23944+P43140); assay: Displacement of [3H]prazosin from Adrenergic alpha-1 receptor in rat cerebral cortex cells at 1 uM; type: cell-based
# [3] = target: T2, 5-hydroxytryptamine receptor 1A (Homo sapiens, UniProt P08908); assay: Displacement of [3H]8-OH-DPAT from human 5HT1A receptor in HEK293 cells
# T2 sequence (P08908 whole entry): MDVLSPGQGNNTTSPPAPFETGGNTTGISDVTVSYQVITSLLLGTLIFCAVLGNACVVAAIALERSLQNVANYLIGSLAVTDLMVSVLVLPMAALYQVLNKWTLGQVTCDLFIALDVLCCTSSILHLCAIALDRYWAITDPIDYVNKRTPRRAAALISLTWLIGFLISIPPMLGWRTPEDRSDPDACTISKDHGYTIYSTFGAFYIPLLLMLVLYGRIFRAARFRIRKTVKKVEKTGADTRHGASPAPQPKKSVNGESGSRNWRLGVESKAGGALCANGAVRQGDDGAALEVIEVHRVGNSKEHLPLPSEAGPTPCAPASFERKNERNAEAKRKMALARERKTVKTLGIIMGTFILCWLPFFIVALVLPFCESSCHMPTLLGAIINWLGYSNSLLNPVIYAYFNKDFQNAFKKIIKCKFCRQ
# [4] = Elimination half life in human; type: ADME, organism-based; details: in vivo
# [5] = target: Dopamine D2 receptor and serotonin 1a receptor (Homo sapiens) (UniProt P14416+P08908); assay: Selectivity for D2 receptor over 5HT1A receptor; type: protein assay
# Chain of Dopamine D2 receptor and serotonin 1a receptor (Homo sapiens) (P14416 whole entry, looked up, one chain of several): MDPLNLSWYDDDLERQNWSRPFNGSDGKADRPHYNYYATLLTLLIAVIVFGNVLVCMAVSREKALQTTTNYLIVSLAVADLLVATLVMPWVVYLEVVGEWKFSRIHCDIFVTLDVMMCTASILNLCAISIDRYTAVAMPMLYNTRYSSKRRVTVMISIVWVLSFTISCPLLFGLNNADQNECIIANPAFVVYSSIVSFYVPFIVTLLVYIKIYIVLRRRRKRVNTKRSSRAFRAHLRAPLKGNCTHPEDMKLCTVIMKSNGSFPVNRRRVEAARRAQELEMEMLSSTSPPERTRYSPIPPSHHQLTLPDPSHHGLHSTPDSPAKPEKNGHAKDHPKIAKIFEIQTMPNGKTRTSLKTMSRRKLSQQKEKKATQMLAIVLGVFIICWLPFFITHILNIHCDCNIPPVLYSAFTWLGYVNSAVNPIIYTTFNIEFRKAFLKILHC
# [6] = target: T3, Adrenergic receptor alpha-1 (Rattus norvegicus, UniProt P15823+P23944+P43140); assay: Displacement of [3H]prazosin from adrenergic alpha-1 receptor in rat cerebral cortex cells; type: cell-based
# T3 sequence (P15823 whole entry): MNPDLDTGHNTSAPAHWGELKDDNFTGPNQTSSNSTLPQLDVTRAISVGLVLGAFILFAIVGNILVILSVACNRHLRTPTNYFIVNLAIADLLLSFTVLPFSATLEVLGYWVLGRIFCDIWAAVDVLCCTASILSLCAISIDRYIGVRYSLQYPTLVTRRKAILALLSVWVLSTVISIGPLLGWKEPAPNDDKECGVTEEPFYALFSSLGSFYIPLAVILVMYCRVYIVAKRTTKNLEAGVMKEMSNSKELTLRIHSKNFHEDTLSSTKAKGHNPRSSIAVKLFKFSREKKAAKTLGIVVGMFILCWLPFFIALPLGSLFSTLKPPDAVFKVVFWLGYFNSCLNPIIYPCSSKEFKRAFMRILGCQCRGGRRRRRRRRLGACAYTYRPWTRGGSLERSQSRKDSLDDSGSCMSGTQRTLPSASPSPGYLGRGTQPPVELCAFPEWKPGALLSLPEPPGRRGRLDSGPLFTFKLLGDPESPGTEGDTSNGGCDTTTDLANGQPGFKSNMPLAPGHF
# T3 sequence (P23944 whole entry): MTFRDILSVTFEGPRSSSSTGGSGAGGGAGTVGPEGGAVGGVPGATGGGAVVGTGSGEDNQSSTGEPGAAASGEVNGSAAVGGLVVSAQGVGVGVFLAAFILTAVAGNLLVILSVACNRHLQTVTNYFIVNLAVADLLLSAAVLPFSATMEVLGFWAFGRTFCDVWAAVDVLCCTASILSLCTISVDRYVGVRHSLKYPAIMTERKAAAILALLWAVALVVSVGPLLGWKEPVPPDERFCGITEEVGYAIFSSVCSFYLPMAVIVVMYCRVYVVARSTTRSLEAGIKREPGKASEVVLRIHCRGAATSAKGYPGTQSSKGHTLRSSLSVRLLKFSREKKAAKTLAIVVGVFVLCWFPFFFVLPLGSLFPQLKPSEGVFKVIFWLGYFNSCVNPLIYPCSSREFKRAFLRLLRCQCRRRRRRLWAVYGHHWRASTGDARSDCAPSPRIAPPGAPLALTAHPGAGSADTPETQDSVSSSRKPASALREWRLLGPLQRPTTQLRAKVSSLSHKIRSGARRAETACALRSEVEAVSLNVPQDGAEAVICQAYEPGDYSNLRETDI
# T3 sequence (P43140 whole entry): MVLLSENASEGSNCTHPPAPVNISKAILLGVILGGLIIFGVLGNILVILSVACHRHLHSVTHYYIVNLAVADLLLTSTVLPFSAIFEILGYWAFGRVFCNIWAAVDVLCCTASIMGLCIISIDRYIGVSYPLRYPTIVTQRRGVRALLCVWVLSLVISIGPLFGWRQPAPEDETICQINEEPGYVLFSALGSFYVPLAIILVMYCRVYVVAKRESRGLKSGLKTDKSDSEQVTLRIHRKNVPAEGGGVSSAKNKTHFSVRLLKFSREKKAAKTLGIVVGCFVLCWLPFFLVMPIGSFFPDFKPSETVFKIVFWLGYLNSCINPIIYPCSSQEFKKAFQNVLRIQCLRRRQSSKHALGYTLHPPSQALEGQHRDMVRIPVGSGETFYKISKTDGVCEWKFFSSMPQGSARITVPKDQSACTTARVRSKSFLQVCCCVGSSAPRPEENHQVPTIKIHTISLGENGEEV
# D(2) dopamine receptor = D(2) dopamine receptor (Homo sapiens, UniProt P14416); assay: Binding affinity to D2 receptor by radioligand binding assay
# Chain of D(2) dopamine receptor (P14416 whole entry): as the sequence (P14416 whole entry, looked up, one chain of several) above
# [7] = Selectivity for adrenergic alpha-1 receptor over 5HT1A receptor
# [8] = Oral bioavailability in Sprague-Dawley rat at 3 mg/kg, po and 1 mg/kg, iv; type: ADME, organism-based; details: in vivo
# [9] = Half life in Sprague-Dawley rat at 3 mg/kg, po; type: ADME, organism-based; design: dose 3 mg/kg, route oral; details: in vivo
# [10] = Half life in human liver microsome at 5 uM; type: ADME; details: liver microsomes
# [11] = Cmax in Beagle dog at 3 mg/kg, po; type: ADME, organism-based, Canis lupus familiaris; design: dose 3 mg/kg, route oral; details: in vivo
# Cytochrome P450 2C19 = Cytochrome P450 2C19 (Homo sapiens, UniProt P33261); assay: Inhibition of human recombinant cytochrome P450 2C19; type: ADME; details: recombinant enzyme
# Chain of Cytochrome P450 2C19 (P33261 whole entry): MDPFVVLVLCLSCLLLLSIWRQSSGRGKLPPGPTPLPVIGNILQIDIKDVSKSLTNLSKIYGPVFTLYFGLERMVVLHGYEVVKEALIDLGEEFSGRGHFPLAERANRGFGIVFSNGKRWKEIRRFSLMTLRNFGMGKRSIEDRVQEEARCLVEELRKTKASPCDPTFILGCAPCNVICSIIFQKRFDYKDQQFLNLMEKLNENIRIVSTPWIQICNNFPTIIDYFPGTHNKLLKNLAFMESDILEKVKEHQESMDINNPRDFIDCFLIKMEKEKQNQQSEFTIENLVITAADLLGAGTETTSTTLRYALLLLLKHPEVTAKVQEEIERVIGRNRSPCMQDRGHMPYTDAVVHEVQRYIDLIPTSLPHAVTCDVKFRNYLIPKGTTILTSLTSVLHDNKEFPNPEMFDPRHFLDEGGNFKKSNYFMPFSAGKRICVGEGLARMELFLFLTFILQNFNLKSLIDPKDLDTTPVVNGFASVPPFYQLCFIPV
# [12] = target: T2, 5-hydroxytryptamine receptor 1A; assay: Activity against 5HT1A receptor by Gi-[35S]GTP-gamma-S binding assay; type: functional
# [13] = Half life in Beagle dog at 3 mg/kg, po; type: ADME, organism-based, Canis lupus familiaris; design: dose 3 mg/kg, route oral; details: in vivo
# Cytochrome P450 1A2 = Cytochrome P450 1A2 (Homo sapiens, UniProt P05177); assay: Inhibition of human recombinant cytochrome P450 1A2; type: ADME; details: recombinant enzyme
# Chain of Cytochrome P450 1A2 (P05177 whole entry): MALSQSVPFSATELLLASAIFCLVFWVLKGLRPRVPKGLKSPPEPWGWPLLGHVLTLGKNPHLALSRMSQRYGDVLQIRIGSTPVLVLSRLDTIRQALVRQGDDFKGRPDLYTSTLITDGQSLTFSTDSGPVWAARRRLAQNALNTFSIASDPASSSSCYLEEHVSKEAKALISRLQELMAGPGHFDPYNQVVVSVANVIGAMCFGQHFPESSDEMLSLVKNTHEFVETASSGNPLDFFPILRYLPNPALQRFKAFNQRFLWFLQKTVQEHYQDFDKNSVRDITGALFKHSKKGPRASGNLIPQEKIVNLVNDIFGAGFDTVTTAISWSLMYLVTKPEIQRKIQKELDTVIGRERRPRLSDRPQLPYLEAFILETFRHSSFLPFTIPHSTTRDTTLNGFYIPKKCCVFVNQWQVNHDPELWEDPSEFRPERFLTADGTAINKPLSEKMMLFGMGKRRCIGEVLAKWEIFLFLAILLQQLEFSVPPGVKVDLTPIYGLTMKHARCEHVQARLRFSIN
# [14] = Cmax in Sprague-Dawley rat at 3 mg/kg, po; type: ADME, organism-based; design: dose 3 mg/kg, route oral; details: in vivo
# [15] = Protein binding in human serum at 2 uM; type: ADME, organism-based; details: read-out: PPB (converted)
# Cytochrome P450 3A4 = Cytochrome P450 3A4 (Homo sapiens, UniProt P08684); assay: Inhibition of human recombinant cytochrome P450 3A4; type: ADME; details: recombinant enzyme
# Chain of Cytochrome P450 3A4 (P08684 whole entry): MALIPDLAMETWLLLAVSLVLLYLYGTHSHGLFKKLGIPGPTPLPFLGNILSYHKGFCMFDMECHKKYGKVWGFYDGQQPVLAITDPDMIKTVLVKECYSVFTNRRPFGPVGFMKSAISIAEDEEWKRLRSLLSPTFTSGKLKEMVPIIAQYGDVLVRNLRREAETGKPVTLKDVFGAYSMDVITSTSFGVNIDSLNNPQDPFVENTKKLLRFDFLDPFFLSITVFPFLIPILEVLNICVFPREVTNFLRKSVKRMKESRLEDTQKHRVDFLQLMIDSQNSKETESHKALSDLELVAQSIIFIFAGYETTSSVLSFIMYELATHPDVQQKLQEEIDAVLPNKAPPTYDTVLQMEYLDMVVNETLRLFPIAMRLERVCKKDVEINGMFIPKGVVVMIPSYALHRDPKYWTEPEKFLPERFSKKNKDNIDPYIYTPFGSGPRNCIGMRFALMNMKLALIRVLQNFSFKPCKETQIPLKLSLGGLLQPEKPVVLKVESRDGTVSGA
# Cytochrome P450 2D6 = Cytochrome P450 2D6 (Homo sapiens, UniProt P10635); assay: Inhibition of human recombinant cytochrome P450 2D6; type: ADME; details: recombinant enzyme
# Chain of Cytochrome P450 2D6 (P10635 whole entry): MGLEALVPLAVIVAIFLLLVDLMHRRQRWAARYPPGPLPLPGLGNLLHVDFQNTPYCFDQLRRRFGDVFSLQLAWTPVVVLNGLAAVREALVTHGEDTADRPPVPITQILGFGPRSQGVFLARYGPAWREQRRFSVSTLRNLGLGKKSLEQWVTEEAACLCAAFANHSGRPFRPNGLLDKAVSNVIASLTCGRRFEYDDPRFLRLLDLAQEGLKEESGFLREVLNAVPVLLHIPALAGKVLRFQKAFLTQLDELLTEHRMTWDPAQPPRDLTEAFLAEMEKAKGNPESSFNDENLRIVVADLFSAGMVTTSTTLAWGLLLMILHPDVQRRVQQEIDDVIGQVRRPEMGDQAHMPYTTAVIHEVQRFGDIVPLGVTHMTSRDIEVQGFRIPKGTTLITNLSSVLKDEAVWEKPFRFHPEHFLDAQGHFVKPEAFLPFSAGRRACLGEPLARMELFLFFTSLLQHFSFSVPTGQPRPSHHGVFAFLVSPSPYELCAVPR
# [16] = Oral bioavailability in Beagle dog at 3 mg/kg, po and 1 mg/kg, iv; type: ADME, organism-based, Canis lupus familiaris; details: in vivo
# Cytochrome P450 2C9 = Cytochrome P450 2C9 (Homo sapiens, UniProt P11712); assay: Inhibition of human recombinant cytochrome P450 2C9; type: ADME; details: recombinant enzyme
# Chain of Cytochrome P450 2C9 (P11712 whole entry): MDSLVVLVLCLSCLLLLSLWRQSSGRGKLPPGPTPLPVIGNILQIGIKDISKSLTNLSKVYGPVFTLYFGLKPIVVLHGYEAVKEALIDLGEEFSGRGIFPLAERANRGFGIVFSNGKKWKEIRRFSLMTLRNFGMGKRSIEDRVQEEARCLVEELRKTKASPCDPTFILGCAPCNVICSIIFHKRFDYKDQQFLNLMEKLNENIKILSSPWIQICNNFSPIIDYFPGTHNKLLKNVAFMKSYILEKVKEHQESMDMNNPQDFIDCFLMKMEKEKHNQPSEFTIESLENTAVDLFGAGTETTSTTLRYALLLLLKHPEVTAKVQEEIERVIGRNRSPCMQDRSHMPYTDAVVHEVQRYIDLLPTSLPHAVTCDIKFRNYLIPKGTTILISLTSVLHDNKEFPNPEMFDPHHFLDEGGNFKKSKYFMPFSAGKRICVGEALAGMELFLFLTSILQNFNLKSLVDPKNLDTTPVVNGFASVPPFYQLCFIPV
Structure (SMILES),Activity [1] [%],Activity [2] [%],Ki [3] [nM],Ki [6] [nM],other results
CC(=O)Nc1cccc(N2CCN(CC3CCN(S(=O)(=O)c4ccc(F)cc4)CC3)CC2)c1,< 10,49,–,–,–
CC(=O)Nc1cccc(N2CCN(CCCCNS(=O)(=O)C(C)C)CC2)c1,< 10,< 10,–,–,–
CC(=O)Nc1cccc(N2CCN(CC3CCN(S(=O)(=O)C(C)C)CC3)CC2)c1,< 10,< 10,–,–,–
O=C1c2ccccc2S(=O)(=O)N1CCCCN1CCN(c2ncccn2)CC1 [IPSAPIRONE],–,–,6,229,half-life [4]: 2 h; Ratio Ki [5]: 18; Ki (D(2) dopamine receptor): 110 nM; Ratio Ki [7]: 38
O=C1CCC(=O)N1C[C@H]1CC[C@H]2CN(c3ncccn3)CCN2C1 [SUNEPITRON],–,–,92,35,half-life [4]: 2 h; Ratio Ki [7]: 0.4
CC(=O)Nc1cccc(N2CCN(CCCCNS(=O)(=O)CC(C)C)CC2)c1,0,5,9.2,> 5000,Cmax [11]: 600 ng/mL; bioavailability [8]: 50%; Inhibition (Cytochrome P450 2C19): Not Active; EC50 [12]: 60 nM; half-life [13]: 2.4 h; Inhibition (Cytochrome P450 1A2): Not Active; Cmax [14]: 350 ng/mL; half-life [9]: 3.5 h; Ki (D(2) dopamine receptor): > 5000 nM; fraction unbound at 2 µM [15]: 0.43; Inhibition (Cytochrome P450 3A4): Not Active; Inhibition (Cytochrome P450 2D6): Not Active; bioavailability [16]: > 80%; half-life at 5 µM [10]: > 1.5 h; Inhibition (Cytochrome P450 2C9): Not Active
Cc1ccc(S(=O)(=O)NCCCCN2CCN(c3cccc(NS(=O)(=O)C(C)C)c3)CC2)cc1,12,47,47,–,–
CCS(=O)(=O)Nc1cccc(N2CCN(CCCCNS(=O)(=O)c3ccc(C)cc3)CC2)c1,14,47,–,–,–

# Further lines, with some results ahead:
Activity [1] [%],Activity [2] [%],Ki [3] [nM],Ki [6] [nM],Structure (SMILES),other results
21,51,–,–,Cc1ccc(S(=O)(=O)NCCCCN2CCN(c3cccc(NS(C)(=O)=O)c3)CC2)cc1,–
10,< 10,22,–,Cc1ccc(S(=O)(=O)NCCCCN2CCN(c3cccc(NC(=O)C4CC4)c3)CC2)cc1,–
43,22,–,> 3500,CC(=O)Nc1cccc(N2CCN(CCCCNS(=O)(=O)c3ccc(C)cc3)CC2)c1,bioavailability [8]: 15%; half-life [9]: 3.3 h; half-life at 5 µM [10]: 0.65 h
31,0,426,–,CCC(=O)Nc1cccc(N2CCN(CCCCNS(=O)(=O)c3ccc(C)cc3)CC2)c1,–
